Here are results for 20 molecules from patent US9321764B2, “Dihydro-pyrrolopyridinone inhibitors” (AbbVie Inc., priority 2013, dated 2016).

One assay has as its target T1, BRD4 (BDI_K57-E168) (Homo sapiens, UniProt O60885).
T1 construct: BD1: amino acids K57-E168; made in house
Description: TR-FRET bromodomain binding assay, first bromodomain of BRD4. The settings on record: His-tagged BD1, 100 nM Alexa647 probe; TR-FRET protocol A-E given per row. The gist of the method:
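His-tagged BRD4 BD1 (K57-E168), 8 nM, with 1 nM Eu-anti-His antibody and 100 nM Alexa647-labelled BET-inhibitor probe in pH 6.0 phosphate buffer, 2% DMSO. TR-FRET read after 1 h at room temperature. IC50 from 4-parameter fit, converted to Ki using probe Kd and concentration.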
On the technique in general: TR-FRET usually uses a lanthanide donor and a delayed reading to cut background.

In the next assay the target is T2, BRD4 (BDII_E352-M457) (Homo sapiens, UniProt O60885).
T2 construct: proliferation; Protocol; made in house
The assay can be described thus: TR-FRET bromodomain binding assay, second bromodomain of BRD4. The note with it: His-tagged BD2, 30 nM Alexa647 probe; TR-FRET protocol A-E given per row. The gist of the method: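 His-tagged BRD4 BD2 ([…]) competed against an Alexa647-labelled BET-inhibitor probe in TR-FRET. Buffer was 20 mM sodium phosphate pH 6.0, 50 mM NaCl, 1 mM EDTA, 0.01% Triton X-100, 1 mM DTT, with method D DMSO series of 2.5 mM–800 nM (stock range). IC50 from 4-parameter fit, Ki from probe Kd and concentration.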

In assay [1] the test system is breast cancer cell line MX-1. The assay can be described thus: MX-1 cell line proliferation assay. The format is cell-based. The settings on record: Homo sapiens, MX1, 72 h, MX-1 cells, 3-day proliferation assay, Cell Titer Glo; read-out: Cellular proliferation EC50. As for the experimental part: The impact of compounds of the Examples on cancer cell proliferation was determined using the breast cancer cell line MX-1 (ATCC) in a 3-day proliferation assay and the data are reported in Table 1. MX-1 cells were maintained in RPMI 1640 medium (Sigma) supplemented with 10% FBS at 37° C. and an atmosphere of 5% CO2. For compound testing, MX-1 cells were plated in 96-well black bottom plates at a density of 5000 cells/well in 90 μL of culture media and incubated at 37° overnight to allow cell adhesion and spreading. Compound dilution series were prepared in DMSO via a 3-fold serial dilution from 3 mM to 0.1 μM. The DMSO dilution series were then diluted 1:100 in phosphate buffered saline, and 10 μL of the resulted solution were added to the appropriate wells of the MX-1 cell plate. The final compound concentrations in the wells were 3, 1, 0.3, 0.1, 0.03, 0.01, 0.003, 0.001, 0.0003 and 0.0001 μM.
Luminescence readings from the Cell Titer Glo assay were normalized to the DMSO treated cells and analyzed using the GraphPad Prism software with sigmoidal curve fitting to obtain EC50s. The minimum significant ratio (MSR) was determined to evaluate assay reproducibility (Eastwood et al., (2006) J Biomol Screen, 11: 253-261).
For orientation: ATP-based viability assays read luminescence as a measure of living cells.

As to `Cn1cc(-c2cc(S(C)(=O)=O)ccc2OCC(C)(C)C)c2cc[nH]c(=O)c21` [Example 27, 3-[2-(2,2-dimethylpropoxy)-5-(methylsulfonyl)phenyl]-1-methyl-1,6-dihydro-7H-pyrrolo[2,3-c]pyridin-7-one], the Ki – broadly, a measure of affinity in units of concentration, obtained from inhibition or displacement – at BRD4 (BDI_K57-E168) was determined as 8 nM; on BRD4 (BDII_E352-M457), 32 nM. In assay [1], the EC50 was 176 nM.

On to `Cn1cc(-c2cc(CNCCC(C)(C)C)ccc2Oc2ccc(F)cc2F)c2cc[nH]c(=O)c21` [Example 114, 3-[2-(2,4-difluorophenoxy)-5-{[(3,3-dimethylbutyl)amino]methyl}phenyl]-1-methyl-1,6-dihydro-7H-pyrrolo[2,3-c]pyridin-7-one], for which the Ki came out at 1410 nM on BRD4 (BDI_K57-E168) and 1200 nM on BRD4 (BDII_E352-M457). Besides, the EC50 in assay [1] was greater than 3000 nM.

`Cn1cc(-c2cc(NC(=O)Cc3cccc(Oc4ccccc4)c3)ccc2Oc2ccc(F)cc2F)c2cc[nH]c(=O)c21` [Example 154, N-[4-(2,4-difluorophenoxy)-3-(1-methyl-7-oxo-6,7-dihydro-1H-pyrrolo[2,3-c]pyridin-3-yl)phenyl]-2-(3-phenoxyphenyl)acetamide]: the Ki at BRD4 (BDI_K57-E168) turned out to be 1760 nM; at BRD4 (BDII_E352-M457) it was 828 nM. The EC50 in assay [1] is 1590 nM.

Regarding `Cn1cc(-c2cc(S(C)(=O)=O)ccc2OC2CCOC2)c2cc[nH]c(=O)c21` (stereo not drawn) [Example 22, 1-methyl-3-[5-(methylsulfonyl)-2-(tetrahydrofuran-3-yloxy)phenyl]-1,6-dihydro-7H-pyrrolo[2,3-c]pyridin-7-one], the Ki was 15 nM at BRD4 (BDI_K57-E168) and 120 nM at BRD4 (BDII_E352-M457). The EC50 in assay [1] turned out to be 384 nM.

On to `Cn1cc(-c2cc(CS(=O)(=O)N3CCCCC3)ccc2Oc2ccc(F)cc2F)c2cc[nH]c(=O)c21` [Example 103, 3-{2-(2,4-difluorophenoxy)-5-[(piperidin-1-ylsulfonyl)methyl]phenyl}-1-methyl-1,6-dihydro-7H-pyrrolo[2,3-c]pyridin-7-one], for which the Ki at BRD4 (BDI_K57-E168) was determined as 8.4 nM; on BRD4 (BDII_E352-M457), 4.9 nM. The EC50 in assay [1] stood at 89 nM.

For the molecule `Cn1cc(-c2cc(CS(C)(=O)=O)cc(C3CC3)c2Nc2ccc(F)cc2F)c2cc[nH]c(=O)c21` [Example 202, 3-{3-cyclopropyl-2-[(2,4-difluorophenyl)amino]-5-[(methylsulfonyl)methyl]phenyl}-1-methyl-1,6-dihydro-7H-pyrrolo[2,3-c]pyridin-7-one], the Ki at BRD4 (BDI_K57-E168) turned out to be 5.82 nM; at BRD4 (BDII_E352-M457), 16.3 nM. Also, the EC50 in assay [1] came to 98.3 nM.

In the case of `CCS(=O)(=O)c1ccc(Oc2ccc(F)cc2F)c(-c2cn(C)c3c(=O)[nH]ccc23)c1` [Example 49, 3-[2-(2,4-difluorophenoxy)-5-(ethylsulfonyl)phenyl]-1-methyl-1,6-dihydro-7H-pyrrolo[2,3-c]pyridin-7-one], the Ki at BRD4 (BDI_K57-E168) came out at 13 nM; at BRD4 (BDII_E352-M457) it was 24 nM. In addition, the EC50 in assay [1] was 52 nM.

For the molecule `Cn1cc(-c2cc(S(C)(=O)=O)ccc2NCC2C[C@@H]3CC[C@H]2C3)c2cc[nH]c(=O)c21` (stereo partly drawn) [Example 71, 3-[2-{[(1S,4R)-bicyclo[2.2.1]hept-2-ylmethyl]amino}-5-(methylsulfonyl)phenyl]-1-methyl-1,6-dihydro-7H-pyrrolo[2,3-c]pyridin-7-one], the results for the Ki on BRD4 (BDI_K57-E168) and at BRD4 (BDII_E352-M457) were 197 nM and 285 nM, respectively. In addition, the EC50 in assay [1] stood at 255 nM.

For the molecule `COc1ccccc1S(=O)(=O)NCc1ccc(Oc2ccc(F)cc2F)c(-c2cn(C)c3c(=O)[nH]ccc23)c1` [Example 130, N-[4-(2,4-difluorophenoxy)-3-(1-methyl-7-oxo-6,7-dihydro-1H-pyrrolo[2,3-c]pyridin-3-yl)benzyl]-2-methoxybenzenesulfonamide], the values for the Ki on BRD4 (BDI_K57-E168) and at BRD4 (BDII_E352-M457) were 247 nM and 1150 nM, respectively. The EC50 in assay [1] was greater than 3000 nM.

Regarding `CCS(=O)(=O)Nc1ccc(OCC2CC2)c(-c2cn(C)c3c(=O)[nH]ccc23)c1C` [Example 14, N-[4-(cyclopropylmethoxy)-2-methyl-3-(1-methyl-7-oxo-6,7-dihydro-1H-pyrrolo[2,3-c]pyridin-3-yl)phenyl]ethanesulfonamide], the Ki on BRD4 (BDI_K57-E168) stood at 73 nM; at BRD4 (BDII_E352-M457) it was 1340 nM. In addition, the EC50 in assay [1] came to 506 nM.

`Cn1cc(-c2cc(S(C)(=O)=O)ccc2OCC2CCOCC2)c2cc[nH]c(=O)c21` [Example 31, 1-methyl-3-[5-(methylsulfonyl)-2-(tetrahydro-2H-pyran-4-ylmethoxy)phenyl]-1,6-dihydro-7H-pyrrolo[2,3-c]pyridin-7-one]: the Ki at BRD4 (BDI_K57-E168) was determined as 21 nM; on BRD4 (BDII_E352-M457), 87 nM. Further, in assay [1], the EC50 worked out at 398 nM.

For the molecule `Cn1cc(-c2cc(CS(=O)(=O)N3CCOCC3)ccc2Oc2ccc(F)cc2F)c2cc[nH]c(=O)c21` [Example 95, 3-{2-(2,4-difluorophenoxy)-5-[(morpholin-4-ylsulfonyl)methyl]phenyl}-1-methyl-1,6-dihydro-7H-pyrrolo[2,3-c]pyridin-7-one], the Ki on BRD4 (BDI_K57-E168) was 4.2 nM; on BRD4 (BDII_E352-M457), 2.1 nM. In assay [1], the EC50 is 8 nM.

`CCS(=O)(=O)c1ccc(Oc2ccc(C)cc2Cl)c(-c2cn(C)c3c(=O)[nH]ccc23)c1` [Example 73, 3-[2-(2-chloro-4-methylphenoxy)-5-(ethylsulfonyl)phenyl]-1-methyl-1,6-dihydro-7H-pyrrolo[2,3-c]pyridin-7-one]: the results for the Ki at BRD4 (BDI_K57-E168) and on BRD4 (BDII_E352-M457) were 43 nM and 21 nM, respectively. Further, the EC50 in assay [1] came out at 194 nM.

In the case of `CCS(=O)(=O)Nc1ccc(OC2COC2)c(-c2cn(C)c3c(=O)[nH]ccc23)c1` [Example 10, N-[3-(1-methyl-7-oxo-6,7-dihydro-1H-pyrrolo[2,3-c]pyridin-3-yl)-4-(oxetan-3-yloxy)phenyl]ethanesulfonamide], the figures for the Ki on BRD4 (BDI_K57-E168) and on BRD4 (BDII_E352-M457) were 18 nM and 142 nM, respectively. Moreover, the EC50 in assay [1] amounted to 225 nM.

For the molecule `Cn1cc(-c2cc(CS(=O)(=O)NC3CCCCC3)ccc2Oc2ccc(F)cc2F)c2cc[nH]c(=O)c21` [Example 102, N-cyclohexyl-1-[4-(2,4-difluorophenoxy)-3-(1-methyl-7-oxo-6,7-dihydro-1H-pyrrolo[2,3-c]pyridin-3-yl)phenyl]methanesulfonamide], the Ki is 95 nM at BRD4 (BDI_K57-E168) and 81 nM on BRD4 (BDII_E352-M457). Moreover, the EC50 in assay [1] is 739 nM.

As for `Cn1cc(-c2cc(NS(C)(=O)=O)c(Oc3ccc(F)cc3F)cc2Oc2ccc(F)cc2F)c2cc[nH]c(=O)c21` [Example 13, N-[2,4-bis(2,4-difluorophenoxy)-5-(1-methyl-7-oxo-6,7-dihydro-1H-pyrrolo[2,3-c]pyridin-3-yl)phenyl]methanesulfonamide], the Ki worked out at 173 nM on BRD4 (BDI_K57-E168) and 213 nM on BRD4 (BDII_E352-M457). The EC50 in assay [1] worked out at 136 nM.

Regarding `CCS(=O)(=O)Nc1ccc(O[C@H]2CC[C@H](OC)CC2)c(-c2cn(C)c3c(=O)[nH]ccc23)c1` [Example 6, N-{4-[(trans-4-methoxycyclohexyl)oxy]-3-(1-methyl-7-oxo-6,7-dihydro-1H-pyrrolo[2,3-c]pyridin-3-yl)phenyl}ethanesulfonamide], the Ki at BRD4 (BDI_K57-E168) amounted to 2.8 nM; on BRD4 (BDII_E352-M457), 57 nM. The EC50 in assay [1] came to 36 nM.

Consider `Cn1cc(-c2cc(CS(=O)(=O)Nc3nccs3)ccc2Oc2ccc(F)cc2F)c2cc[nH]c(=O)c21` [Example 104, 1-[4-(2,4-difluorophenoxy)-3-(1-methyl-7-oxo-6,7-dihydro-1H-pyrrolo[2,3-c]pyridin-3-yl)phenyl]-N-(1,3-thiazol-2-yl)methanesulfonamide], for which the Ki at BRD4 (BDI_K57-E168) was 72 nM; at BRD4 (BDII_E352-M457), 107 nM. The EC50 in assay [1] is greater than 3000 nM.

Take `CCS(=O)(=O)c1ccc(Oc2c(C)nn(C)c2C)c(-c2cn(C)c3c(=O)[nH]ccc23)c1` [Example 90, 3-{5-(ethylsulfonyl)-2-[(1,3,5-trimethyl-1H-pyrazol-4-yl)oxy]phenyl}-1-methyl-1,6-dihydro-7H-pyrrolo[2,3-c]pyridin-7-one]: the Ki was found to be 54 nM on BRD4 (BDI_K57-E168) and 39 nM on BRD4 (BDII_E352-M457). Moreover, in assay [1], the EC50 amounted to 96 nM.

Turning to `Cn1cc(-c2cc(CNS(=O)(=O)C3CCCC3)ccc2Oc2ccc(F)cc2F)c2cc[nH]c(=O)c21` [Example 137, N-[4-(2,4-difluorophenoxy)-3-(1-methyl-7-oxo-6,7-dihydro-1H-pyrrolo[2,3-c]pyridin-3-yl)benzyl]cyclopentanesulfonamide], the Ki on BRD4 (BDI_K57-E168) is 106 nM; on BRD4 (BDII_E352-M457), 374 nM. In addition, the EC50 in assay [1] was 872 nM.
